From PubChem BioAssay AID256 (DTP/NCI, 2004)
Values joined by “and” are separate entries in the source; they are usually repeats but may differ in a detail not shown here. Equal entries are not always repeated. Toxic doses and inconclusive results are not listed.

Test system: CD2F1 mice, L1210 leukemia ip, survival T/C
Experiment: NCI In Vivo Anticancer Drug Screen. Data for tumor model L1210 Leukemia (intraperitoneal) in CD2F1 (CDF1) mice
Details: higher = longer survival
How it was run: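 Mice carrying a transplanted tumor received test compound or vehicle alone. The value is the measurement in the treated group divided by that in the vehicle-treated control group.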

`O=c1[nH]c(=O)n(C2CC(O)C(CO)O2)cc1F` (centres undefined) was tested, and the T/C (endpoint: mean survival time, dose: 5.0 mg/kg/injection, schedule: Q#A X018 (ip), vehicle: saline) was 115 % of control, the T/C (endpoint: mean survival time, dose: 9.0 mg/kg/injection, schedule: Q#A X018 (ip), vehicle: saline) was 121 % of control and the T/C (endpoint: mean survival time, dose: 12.5 mg/kg/injection, schedule: Q03HX024 (oral), vehicle: saline) was 101 % of control. For the same compound, the T/C (endpoint: mean survival time, dose: 16.0 mg/kg/injection, schedule: Q#A X018 (ip), vehicle: saline) was 121 % of control, the T/C (endpoint: mean survival time, dose: 25.0 mg/kg/injection, schedule: Q01DX005 (ip), vehicle: water) was 108 % of control and the T/C (endpoint: mean survival time, dose: 25.0 mg/kg/injection, schedule: Q03HX008 (oral), vehicle: saline) was 107 % of control. The T/C (endpoint: mean survival time, dose: 25.0 mg/kg/injection, schedule: Q03HX016 (ip), vehicle: saline) was 96 % of control, the T/C (endpoint: mean survival time, dose: 26.0 mg/kg/injection, schedule: Q#A X018 (ip), vehicle: saline) was 123 % of control and the T/C (endpoint: mean survival time, dose: 31.3 mg/kg/injection, schedule: Q01DX005 (ip), vehicle: saline) was 121 % of control. For the same compound, the T/C (endpoint: mean survival time, dose: 37.5 mg/kg/injection, schedule: Q03DX003 (ip), vehicle: water) was 121 % of control, the T/C (endpoint: mean survival time, dose: 37.5 mg/kg/injection, schedule: Q04DX003 (ip), vehicle: water) was 100 % of control and the T/C (endpoint: mean survival time, dose: 43.0 mg/kg/injection, schedule: Q#A X018 (ip), vehicle: saline) was 108 % of control. For the same compound, the T/C (endpoint: mean survival time, dose: 50.0 mg/kg/injection, schedule: Q01DX005 (ip), vehicle: water) was 110 % of control, the T/C (endpoint: mean survival time, dose: 50.0 mg/kg/injection, schedule: Q01DX009 (oral), vehicle: saline) was 119 % of control and the T/C (endpoint: mean survival time, dose: 50.0 mg/kg/injection, schedule: Q03HX008 (oral), vehicle: saline) was 111 % of control. For the same compound, the T/C (endpoint: mean survival time, dose: 50.0 mg/kg/injection, schedule: Q03HX016 (ip), vehicle: saline) was 111 % of control, the T/C (endpoint: mean survival time, dose: 50.0 mg/kg/injection, schedule: Q03HX024 (oral), vehicle: saline) was 107 % of control and the T/C (endpoint: mean survival time, dose: 72.0 mg/kg/injection, schedule: Q#A X018 (ip), vehicle: saline) was 106 % of control. For the same compound, the T/C (endpoint: mean survival time, dose: 75.0 mg/kg/injection, schedule: Q01DX007 (ip), vehicle: water) was 100 % of control, the T/C (endpoint: mean survival time, dose: 75.0 mg/kg/injection, schedule: Q01DX009 (ip), vehicle: water) was 110 % of control and the T/C (endpoint: mean survival time, dose: 75.0 mg/kg/injection, schedule: Q03DX003 (ip), vehicle: water) was 122 % of control. The T/C (endpoint: mean survival time, dose: 75.0 mg/kg/injection, schedule: Q04DX003 (ip), vehicle: water) was 111 % of control, the T/C (endpoint: mean survival time, dose: 80.0 mg/kg/injection, schedule: Q01DX009 (ip), vehicle: saline) was 167 % of control and the T/C (endpoint: mean survival time, dose: 100.0 mg/kg/injection, schedule: Q01DX005 (ip), vehicle: water) was 110 % of control. The T/C (endpoint: mean survival time, dose: 100.0 mg/kg/injection, schedule: Q03HX024 (oral), vehicle: saline) was 92 % of control, the T/C (endpoint: mean survival time, dose: 100.0 mg/kg/injection, schedule: Q04DX003 (oral), vehicle: saline) was 114 % of control and the T/C (endpoint: mean survival time, dose: 120.0 mg/kg/injection, schedule: Q#A X018 (ip), vehicle: saline) was 94 % of control. The T/C (endpoint: mean survival time, dose: 125.0 mg/kg/injection, schedule: Q01DX001 (ip), vehicle: saline) was 101 % of control, the T/C (endpoint: mean survival time, dose: 125.0 mg/kg/injection, schedule: Q01DX001 (oral), vehicle: saline) was 101 % of control and the T/C (endpoint: mean survival time, dose: 125.0 mg/kg/injection, schedule: Q01DX001 (sc), vehicle: saline) was 109 % of control. The T/C (endpoint: mean survival time, dose: 125.0 mg/kg/injection, schedule: Q01DX009 (oral), vehicle: saline) was 121 % of control, the T/C (endpoint: mean survival time, dose: 125.0 mg/kg/injection, schedule: Q03HX008 (ip), vehicle: saline) was 120 % of control and the T/C (endpoint: mean survival time, dose: 125.0 mg/kg/injection, schedule: Q03HX016 (ip), vehicle: saline) was 110 % of control. For the same compound, the T/C (endpoint: mean survival time, dose: 125.0 mg/kg/injection, schedule: Q03HX024 (ip), vehicle: saline) was 163 % of control, the T/C (endpoint: mean survival time, dose: 125.0 mg/kg/injection, schedule: Q04DX003 (ip), vehicle: saline) was 119 % of control and the T/C (endpoint: mean survival time, dose: 125.0 mg/kg/injection, schedule: Q08DX002 (ip), vehicle: saline) was 100 % of control. The T/C (endpoint: mean survival time, dose: 150.0 mg/kg/injection, schedule: Q01DX007 (ip), vehicle: water) was 100 % of control, the T/C (endpoint: mean survival time, dose: 150.0 mg/kg/injection, schedule: Q01DX009 (ip), vehicle: water) was 100 % of control and the T/C (endpoint: mean survival time, dose: 160.0 mg/kg/injection, schedule: Q01DX009 (ip), vehicle: saline) was 151 % of control. For the same compound, the T/C (endpoint: mean survival time, dose: 200.0 mg/kg/injection, schedule: Q01DX001 (oral), vehicle: saline) was 113 % of control, the T/C (endpoint: mean survival time, dose: 200.0 mg/kg/injection, schedule: Q01DX005 (ip), vehicle: water) was 87 % of control and the T/C (endpoint: mean survival time, dose: 200.0 mg/kg/injection, schedule: Q01DX009 (oral), vehicle: saline) was 114 % of control. For the same compound, the T/C (endpoint: mean survival time, dose: 200.0 mg/kg/injection, schedule: Q03HX008 (oral), vehicle: saline) was 94 % of control, the T/C (endpoint: mean survival time, dose: 200.0 mg/kg/injection, schedule: Q03HX016 (ip), vehicle: saline) was 118 % of control and the T/C (endpoint: mean survival time, dose: 200.0 mg/kg/injection, schedule: Q08DX002 (oral), vehicle: saline) was 103 % of control. The T/C (endpoint: mean survival time, dose: 200.0 mg/kg/injection, schedule: Q#A X018 (ip), vehicle: saline) was 88 % of control, the T/C (endpoint: mean survival time, dose: 250.0 mg/kg/injection, schedule: Q01DX001 (ip), vehicle: saline) was 111 % of control and the T/C (endpoint: mean survival time, dose: 250.0 mg/kg/injection, schedule: Q01DX001 (oral), vehicle: saline) was 108 % of control. For the same compound, the T/C (endpoint: mean survival time, dose: 250.0 mg/kg/injection, schedule: Q01DX001 (sc), vehicle: saline) was 123 % of control, the T/C (endpoint: mean survival time, dose: 250.0 mg/kg/injection, schedule: Q01DX009 (ip), vehicle: saline) was 108 % of control and the T/C (endpoint: mean survival time, dose: 250.0 mg/kg/injection, schedule: Q01DX009 (oral), vehicle: saline) was 121 % of control. The T/C (endpoint: mean survival time, dose: 250.0 mg/kg/injection, schedule: Q01DX009 (sc), vehicle: saline) was 122 % of control, the T/C (endpoint: mean survival time, dose: 250.0 mg/kg/injection, schedule: Q03HX024 (ip), vehicle: saline) was 155 % of control and the T/C (endpoint: mean survival time, dose: 250.0 mg/kg/injection, schedule: Q04DX003 (ip), vehicle: saline) was 162 % of control. The T/C (endpoint: mean survival time, dose: 250.0 mg/kg/injection, schedule: Q08DX002 (ip), vehicle: saline) was 115 % of control, the T/C (endpoint: mean survival time, dose: 320.0 mg/kg/injection, schedule: Q01DX009 (ip), vehicle: saline) was 102 % of control and the T/C (endpoint: mean survival time, dose: 400.0 mg/kg/injection, schedule: Q01DX001 (oral), vehicle: saline) was 117 % of control. The T/C (endpoint: mean survival time, dose: 400.0 mg/kg/injection, schedule: Q01DX009 (oral), vehicle: saline) was 109 % of control, the T/C (endpoint: mean survival time, dose: 400.0 mg/kg/injection, schedule: Q04DX003 (oral), vehicle: saline) was 119 % of control and the T/C (endpoint: mean survival time, dose: 400.0 mg/kg/injection, schedule: Q08DX002 (oral), vehicle: saline) was 107 % of control. The T/C (endpoint: mean survival time, dose: 500.0 mg/kg/injection, schedule: Q01DX001 (oral), vehicle: saline) was 121 % of control, the T/C (endpoint: mean survival time, dose: 500.0 mg/kg/injection, schedule: Q03HX016 (ip), vehicle: saline) was 154 % of control and the T/C (endpoint: mean survival time, dose: 500.0 mg/kg/injection, schedule: Q03HX024 (ip), vehicle: saline) was 121 % of control. The T/C (endpoint: mean survival time, dose: 500.0 mg/kg/injection, schedule: Q08DX002 (ip), vehicle: saline) was 164 % of control, the T/C (endpoint: mean survival time, dose: 800.0 mg/kg/injection, schedule: Q04DX003 (oral), vehicle: saline) was 110 % of control and the T/C (endpoint: mean survival time, dose: 800.0 mg/kg/injection, schedule: Q08DX002 (oral), vehicle: saline) was 156 % of control. For the same compound, the T/C (endpoint: mean survival time, dose: 1000.0 mg/kg/injection, schedule: Q01DX001 (oral), vehicle: saline) was 151 % of control, the T/C (endpoint: mean survival time, dose: 1000.0 mg/kg/injection, schedule: Q01DX001 (sc), vehicle: saline) was 159 % of control and the T/C (endpoint: mean survival time, dose: 1000.0 mg/kg/injection, schedule: Q03HX008 (ip), vehicle: saline) was 157 % of control. For the same compound, the T/C (endpoint: mean survival time, dose: 1000.0 mg/kg/injection, schedule: Q03HX024 (ip), vehicle: saline) was 92 % of control, the T/C (endpoint: mean survival time, dose: 1000.0 mg/kg/injection, schedule: Q04DX003 (ip), vehicle: saline) was 98 % of control and the T/C (endpoint: mean survival time, dose: 1600.0 mg/kg/injection, schedule: Q01DX001 (oral), vehicle: saline) was 103 % of control. For the same compound, the T/C (endpoint: mean survival time, dose: 1600.0 mg/kg/injection, schedule: Q08DX002 (oral), vehicle: saline) was 97 % of control, the T/C (endpoint: median survival time, dose: 51.8 mg/kg/injection, schedule: Q04DX002 (ip), vehicle: saline) was 107 % of control and the T/C (endpoint: median survival time, dose: 86.4 mg/kg/injection, schedule: Q04DX002 (ip), vehicle: saline) was 114 % of control. The T/C (endpoint: median survival time, dose: 144.0 mg/kg/injection, schedule: Q04DX002 (ip), vehicle: saline) was 121 % of control and the T/C (endpoint: median survival time, dose: 400.0 mg/kg/injection, schedule: Q04DX002 (ip), vehicle: saline) was 105 % of control.

For `CN(C)c1nc(=[N+](C)C)ss1`, the T/C (endpoint: mean survival time, dose: 50.0 mg/kg/injection, schedule: Q01DX009 (ip), vehicle: saline with Tween-80) was 104 % of control, the T/C (endpoint: mean survival time, dose: 100.0 mg/kg/injection, schedule: Q01DX009 (ip), vehicle: saline with Tween-80) was 101 % of control and 107 % of control and the T/C (endpoint: mean survival time, dose: 100.0 mg/kg/injection, schedule: Q04DX003 (ip), vehicle: saline with Tween-80) was 102 % of control. The T/C (endpoint: mean survival time, dose: 200.0 mg/kg/injection, schedule: Q01DX009 (ip), vehicle: saline with Tween-80) was 93 % of control and 107 % of control, the T/C (endpoint: mean survival time, dose: 200.0 mg/kg/injection, schedule: Q04DX003 (ip), vehicle: saline with Tween-80) was 98 % of control and the T/C (endpoint: mean survival time, dose: 400.0 mg/kg/injection, schedule: Q01DX009 (ip), vehicle: saline with Tween-80) was 93 % of control. The T/C (endpoint: mean survival time, dose: 400.0 mg/kg/injection, schedule: Q04DX003 (ip), vehicle: saline with Tween-80) was 90 % of control.
